Laboratory results: patent publication US20230270714A1, “SALVINORIN COMPOSITIONS” (priority 2021, published 2023)
Converted amounts (≈) assume the structure as drawn. “And” between values parts separate entries of the source, which are not always exact repeats. Identical values can stand only once.

What was measured:
[1] = Solubility of Salvinorin A API and Salvinorin A loaded buccal films in 10 mM PBS pH 7; format: physicochemical
Method: After 3 hours samples were filtered through 0.45/0.22 micron filter and tested for content by HPLC analysis.

[2] = Salvinorin A solubility in polar aprotic solvents; format: physicochemical
Method: In Table 9 below the solubility of Salvinorin A in polar aprotic solvents was evaluated by increasing the amount of Salvinorin A in the candidate solvents.

[3] = Pharmacokinetics of subcutaneous Salvinorin A in rats, first experiment (in 1-methyl-2-pyrrolidine, polyethylene glycol 400 1:9 v/v); format: in vivo, male Sprague-Dawley rats
Method: A series of experiments were conducted in order to evaluate the pharmacokinetics of injectable Salvinorin A compositions in rats. In the first experiment Salvinorin A was formulated at two different dose concentrations (5 mg/mL and 20 mg/mL Salvinorin A in 1-methyl-2-pyrrolidine, polyethylene glycol 400 at a 1:9 v/v ratio) and administered via injection (subcutaneous) to two groups of male Sprague-Dawley rats.

[4] = Pharmacokinetics of subcutaneous Salvinorin A in rats, Day 1 and Day 8 (in 1-methyl-2-pyrrolidine, polyethylene glycol 400 1:9 v/v); format: in vivo, Sprague-Dawley rats; conditions: for time to peak plasma concentration (Tmax): summary of two separate studies
Method: In another experiment Salvinorin A was formulated at three different dose concentrations (1 mg/mL, 5 mg/mL, and 10 mg/mL Salvinorin A in 1-methyl-2-pyrrolidine, polyethylene glycol 400 at a 1:9 v/v ratio) and administered via injection (subcutaneous) to three groups of Sprague-Dawley rats (each group including female and male rats). The formulation containing 10 mg/mL Salvinorin A was administered as two injections at separate dosage sites (total dose of 100 mg/kg). The same groups of rats were administered a second dose of the injectable composition 7 days after the first dosing.

[5] = administered orally, even at higher doses; cited from earlier work
[6] = Solubility of Salvinorin A in solubilizer oils (HPLC)
[7] = Solubilization of Salvinorin A mixed with solubilizers in water (supersaturated mixtures, HPLC)
[8] = Group 1, 25 mg/kg subcutaneous, Mean
[9] = Group 1, 25 mg/kg subcutaneous, individual rats 0, 1, 2, 25 mg/kg
[10] = Group 2, 100 mg/kg subcutaneous, Mean
[11] = Group 2, 100 mg/kg subcutaneous, individual rats 3, 4, 5, 100 mg/kg
[12] = Day 1, Group 10, 5 mg/kg subcutaneous, Mean of M and F
[13] = Day 1, Group 10, 5 mg/kg subcutaneous, Sex F
[14] = Day 1, Group 10, 5 mg/kg subcutaneous, Sex M
[15] = Day 1, Group 11, 25 mg/kg subcutaneous, Mean of M and F
[16] = Day 1, Group 11, 25 mg/kg subcutaneous, Sex F
[17] = Day 1, Group 11, 25 mg/kg subcutaneous, Sex M
[18] = Day 1, Group 12, 100 mg/kg subcutaneous (two injections), Mean of M and F
[19] = Day 1, Group 12, 100 mg/kg subcutaneous (two injections), Sex F
[20] = Day 1, Group 12, 100 mg/kg subcutaneous (two injections), Sex M
[21] = Day 8 (second dose), Group 10, 5 mg/kg subcutaneous, Mean of M and F
[22] = Day 8 (second dose), Group 10, 5 mg/kg subcutaneous, Sex F
[23] = Day 8 (second dose), Group 10, 5 mg/kg subcutaneous, Sex M
[24] = Day 8 (second dose), Group 11, 25 mg/kg subcutaneous, Mean of M and F
[25] = Day 8 (second dose), Group 11, 25 mg/kg subcutaneous, Sex F
[26] = Day 8 (second dose), Group 11, 25 mg/kg subcutaneous, Sex M
[27] = Day 8 (second dose), Group 12, 100 mg/kg subcutaneous (two injections), Mean of M and F
[28] = Day 8 (second dose), Group 12, 100 mg/kg subcutaneous (two injections), Sex F
[29] = Day 8 (second dose), Group 12, 100 mg/kg subcutaneous (two injections), Sex M

In the case of `COC(=O)[C@@H]1C[C@H](OC(C)=O)C(=O)[C@H]2[C@@]1(C)CC[C@H]1C(=O)O[C@H](c3ccoc3)C[C@]21C` [Salvinorin A], the “Solubility” value ([1]; 4 mg equivalent of API powder or film in 10 mL 10 mM PBS, pH 7, 3 hours, filtered, HPLC) is reported as 1.8 µg/mL, the “Solubility (in words)” value ([1]; 10 mM PBS, pH 7.0) is reported as “very low solubility” and the “Solubility (Y= soluble, N= not soluble completely)” value ([2]; DMA, 100 mg/ml) is reported as “Y (Y= soluble)”. For the same molecule, the “Solubility (Y= soluble, N= not soluble completely)” value ([2]; DMA, 200 mg/ml) was “N (N= not soluble completely)”, the “Solubility (Y= soluble, N= not soluble completely)” value ([2]; DMSO, 100 mg/ml) was “Y (Y= soluble)” and the “Solubility (Y= soluble, N= not soluble completely)” value ([2]; DMSO, 200 mg/ml) was “N (N= not soluble completely)”. For the same molecule, the “Solubility (Y= soluble, N= not soluble completely)” value ([2]; NMP, 20 mg/ml) was “Y (Y= soluble)”, the “Solubility (Y= soluble, N= not soluble completely)” value ([2]; NMP, 100 mg/ml) was “Y (Y= soluble)” and the “Solubility (Y= soluble, N= not soluble completely)” value ([2]; NMP, 200 mg/ml) was “Y (Y= soluble)”. It also gave an AUC0-00 [3, 8] of 457.0 ng·h/mL, an AUClast [3, 8] of 427.3 ng·h/mL and a Cmax [3, 8] of 215.3 ng/mL. The Tmax [3, 8] was 0.50 h, the T½ [3, 8] was 1.5 h and the Tmax ([3]; Group 1, 25 mg/kg subcutaneous, individual rats 0, 1, 2) was 0.50 h. For the same molecule, the AUC0-00 [3, 9] was 389 ng·h/mL and 422 ng·h/mL and 560 ng·h/mL, the AUClast [3, 9] was 362 ng·h/mL and 405 ng·h/mL and 515 ng·h/mL and the Cmax [3, 9] was 209 ng/mL and 213 ng/mL and 224 ng/mL. For the same molecule, the T½ [3, 9] was 1.00 h and 1.58 h and 1.96 h, the AUC0-00 [3, 10] was 419.3 ng·h/mL and the AUClast [3, 10] was 395.0 ng·h/mL. For the same molecule, the Cmax [3, 10] was 183.3 ng/mL, the Tmax [3, 10] was 0.7 h and the T½ [3, 10] was 1.5 h. For the same molecule, the AUC0-00 [3, 11] was 365 ng·h/mL and 498 ng·h/mL and 395 ng·h/mL, the AUClast [3, 11] was 348 ng·h/mL and 461 ng·h/mL and 376 ng·h/mL and the Cmax [3, 11] was 187 ng/mL and 208 ng/mL and 155 ng/mL. For the same molecule, the Tmax [3, 11] was 1.00 h and 0.50 h, the T½ [3, 11] was 0.87 h and 1.91 h and 1.73 h and the AUClast [4, 12] was 191 ng·h/mL. For the same molecule, the Cmax [4, 12] was 67.1 ng/mL, the Tmax [4, 12] was 3 h and the AUClast [4, 13] was 233 ng·h/mL. The Cmax [4, 13] was 75.8 ng/mL, the Tlast [4, 13] was 4 h and the Tmax [4, 13] was 4 h. For the same molecule, the AUClast [4, 14] was 148 ng·h/mL, the Cmax [4, 14] was 58.4 ng/mL and the Tlast [4, 14] was 4 h. It also gave a Tmax [4, 14] of 2 h, an AUClast [4, 15] of 375 ng·h/mL and a Cmax [4, 15] of 192 ng/mL. It also gave a Tmax [4, 15] of 0.75 h, an AUClast [4, 16] of 389 ng·h/mL and a Cmax [4, 16] of 250 ng/mL. The Tlast [4, 16] was 4 h, the Tmax [4, 16] was 0.5 h and the AUClast [4, 17] was 361 ng·h/mL. It also gave a Cmax [4, 17] of 135 ng/mL, a Tlast [4, 17] of 4 h and a Tmax [4, 17] of 1 h. It also gave an AUC0-00 [4, 18] of 1580 ng·h/mL, an AUClast [4, 18] of 1540 ng·h/mL and a Cmax [4, 18] of 370 ng/mL. It also gave a Tmax [4, 18] of 0.075 h, a T½ [4, 18] of 4.79 h and an AUC0-00 [4, 19] of 1920 ng·h/mL. It also gave an AUClast [4, 19] of 1870 ng·h/mL, a Cmax [4, 19] of 419 ng/mL and a Tlast [4, 19] of 24 h. For the same molecule, the Tmax [4, 19] was 1 h, the T½ [4, 19] was 4.80 h and the AUC0-00 [4, 20] was 1240 ng·h/mL. It also gave an AUClast [4, 20] of 1210 ng·h/mL, a Cmax [4, 20] of 321 ng/mL and a Tlast [4, 20] of 24 h. The Tmax [4, 20] was 0.5 h, the T½ [4, 20] was 4.78 h and the AUClast [4, 21] was 200 ng·h/mL. For the same molecule, the Cmax [4, 21] was 74.5 ng/mL, the Tmax [4, 21] was 2 h and the AUClast [4, 22] was 211 ng·h/mL. The Cmax [4, 22] was 78.3 ng/mL, the Tlast [4, 22] was 4 h and the Tmax [4, 22] was 2 h. It also gave an AUClast [4, 23] of 188 ng·h/mL, a Cmax [4, 23] of 70.6 ng/mL and a Tlast [4, 23] of 4 h. For the same molecule, the Tmax [4, 23] was 2 h, the “(h)” value [4, 24] was 4.54 h and the AUC0-00 [4, 24] was 735 ng·h/mL. It also gave an AUClast [4, 24] of 723 ng·h/mL, a Cmax [4, 24] of 174 ng/mL and a Tmax [4, 24] of 0.75 h. The “(h)” value [4, 25] was 4.16 h, the AUC0-00 [4, 25] was 958 ng·h/mL and the AUClast [4, 25] was 946 ng·h/mL. For the same molecule, the Cmax [4, 25] was 162 ng/mL, the Tlast [4, 25] was 24 h and the Tmax [4, 25] was 0.5 h. For the same molecule, the “(h)” value [4, 26] was 4.92 h, the AUC0-00 [4, 26] was 512 ng·h/mL and the AUClast [4, 26] was 500 ng·h/mL. For the same molecule, the Cmax [4, 26] was 185 ng/mL, the Tlast [4, 26] was 24 h and the Tmax [4, 26] was 1 h. The “(h)” value [4, 27] was 5.00 h, the AUC0-00 [4, 27] was 1420 ng·h/mL and the AUClast [4, 27] was 1380 ng·h/mL. The Cmax [4, 27] was 341 ng/mL, the Tmax [4, 27] was 0.05 h and the “(h)” value [4, 28] was 4.80 h. The AUC0-00 [4, 28] was 1520 ng·h/mL, the AUClast [4, 28] was 1470 ng·h/mL and the Cmax [4, 28] was 315 ng/mL. For the same molecule, the Tlast [4, 28] was 24 h, the Tmax [4, 28] was 0.5 h and the “(h)” value [4, 29] was 5.20 h. The AUC0-00 [4, 29] was 1320 ng·h/mL, the AUClast [4, 29] was 1280 ng·h/mL and the Cmax [4, 29] was 368 ng/mL. For the same molecule, the Tlast [4, 29] was 24 h, the Tmax [4, 29] was 0.5 h and the “time to peak plasma concentration (Tmax)” value ([4]; subcutaneous dosing in the rat at 5 mg/kg) was 2 to 4 h. For the same molecule, the “time to peak plasma concentration (Tmax)” value ([4]; subcutaneous dosing in the rat at 25 and 100 mg/kg) was 0.5 h, the psychoactive effects [5] was “fails to exhibit any psychoactive effects” and the “Solubility (mg/ml) HPLC” value ([6]; Eucaliptol 5 g, Salvinorin A 12.00 mg) was 0.108 mg/mL (≈ 250 µM). For the same molecule, the “Solubility (mg/ml) HPLC” value ([6]; L Menthone 5 g, Salvinorin A 10.00 mg) was 0.101 mg/mL (≈ 234 µM), the “Solubility (mg/ml) HPLC” value ([6]; Oleyl Alcohol 5 g, Salvinorin A 11.00 mg) was 0.065 mg/mL (≈ 150 µM) and the “Solubility (mg/ml) HPLC” value ([6]; Peppermint oil 5 g, Salvinorin A 9.90 mg) was 0.384 mg/mL (≈ 888 µM). The “Solubility (mg/ml) HPLC” value ([6]; S Limonene 5 g, Salvinorin A 10.00 mg) was 0.052 mg/mL (≈ 120 µM), the “Solubility (mg/ml) HPLC” value ([6]; Soybean oil 5 g, Salvinorin A 11.00 mg) was 0.032 mg/mL (≈ 74 µM) and the “Solubility (mg/ml) HPLC” value ([7]; Benzalkonium chloride (BKC) 50 mg, Salvinorin A 21 mg, water 10 ml) was 0.008 mg/mL (≈ 18.5 µM). For the same molecule, the “Solubility (mg/ml) HPLC” value ([7]; Poloxamer 407 (Lutrol micro 127 MP) 150 mg, Salvinorin A 21 mg, water 10 ml) was 0.008 mg/mL (≈ 18.5 µM), the “Solubility (mg/ml) HPLC” value ([7]; SPAN 60 103.00 mg, Salvinorin A 12.00 mg, water 5 ml) was 0.013 mg/mL (≈ 30.1 µM) and the “Solubility (mg/ml) HPLC” value ([7]; Sodium Deoxycholate 100 mg, Salvinorin A 22 mg, water 10 ml) was 0.078 mg/mL (≈ 180 µM). The “Solubility (mg/ml) HPLC” value ([7]; Sodium dodecyl sulfate (SDS; SLS) 50 mg, Salvinorin A 21 mg, water 10 ml) was 0.013 mg/mL (≈ 30.1 µM) and the “Solubility (mg/ml) HPLC” value ([7]; TPGS (soluble vitamin E) 100 mg, Salvinorin A 23 mg, water 10 ml) was 0.011 mg/mL (≈ 25.4 µM).
